Source: article PMC8080589, “Modulation of αVβ6 integrin in osteoarthritis-related synovitis and the interaction with VTN(381–397 a.a.) competing for TGF-β1 activation” (Experimental & Molecular Medicine, 2021)
Ends that are not written are not given here.

B1: HMGB1: danger-associated molecular pattern (protein, UniProt P09429 1-215, looked up)
High mobility group protein B1: MGKGDPKKPRGKMSSYAFFVQTCREEHKKKHPDASVNFSEFSKKCSERWKTMSAKEKGKFEDMAKADKARYEREMKTYIPPKGETKKKFKDPNAPKRPPSAFFLFCSEYRPKIKGEHPGLSIGDVAKKLGEMWNNTAADDKQPYEKKAAKLKEKYEKDIAAYRAKGKPDAAKKGVVKAEKSKKKKEEEEDEEDEEDEEEEEDEEDEDEEEDDDDE
B2: S100A9: danger-associated molecular pattern (protein, UniProt P06702 1-114, looked up)
Protein S100-A9: MTCKMSQLERNIETIINTFHQYSVKLGHPDTLNQGEFKELVRKDLQNFLKKENKNEKVIEHIMEDLDTNADKQLSFEEFIMLMARLTWASHEKMHEGDEGPGHHHKPGLGEGTP

Assays:
[1] = test system: αV integrin subunit expression, human fibroblast-like synoviocytes (FLSs); test: αV subunit expression in FLSs by western blot after stimulation; type: cell-based; settings: OA FLSs, western blot normalized to GAPDH; IL-1β, IL-6, TNF-α 10 ng/mL 3 or 7 days; prednisolone, dexamethasone 1 μM 3 or 7 days; HMGB1 10, 50, 100 ng/mL 3 days; S100A9, S100A12 100, 200 ng/mL 3 days or 24 h; AGE-BSA 50, 100, 200 μg/mL 3 days or 24 h; menadione 25–50–100 μM 3 h; H2O2 100–200–400 μM 2 h
Procedure: (§1) Synovial membranes were obtained from 22 OA patients (14 females, 8 males; mean age 69.8 ± 9.6 years, BMI 30.9 ± 6.8) during knee replacement, and primary synovial fibroblasts were isolated as explained previously. The research ethics committee of CHU de Liege (Belgium) approved the study, and the patient gave informed consent to allow research procedures on samples. Human fibroblast-like synoviocytes (FLSs) were then cultured in DMEM supplemented with 10% FBS, 1% Pen/Strep, and 1% L-glutamine (all from Lonza; Basel, Switzerland) at 37 °C in an atmosphere of 5% CO2. In a plate, 5 × 10^4 FLSs were stimulated with different compounds to analyze the modulation of αVβ6: (i) TGF-β1, TNF-α, IL-1β, or IL-6 were used for 3 or 7 days at a concentration of 10 ng/mL; (ii) among the danger-associated molecular patterns, high-mobility group box 1 (HMGB1) was tested at 10, 50, and 100 ng/mL for 3 days, while S100A9 and S100A12 were tested at 100 and 200 ng/mL for 3 days or 24 h; (iii) advanced glycation end product (AGE-BSA) was tested at 50, 100, and 200 μg/mL for 3 days or 24 h; (iv) prednisolone and dexamethasone were used at 1 μM for 3 or 7 days; and (v) menadione or H2O2 was used to induce oxidative stress at 25–50–100 μM (3 h) and 100–200–400 μM (2 h), respectively, without FBS in the medium.
(§2) The expression of αV and β6 subunits and α-SMA in FLSs was evaluated by western blot analysis. Cells were scraped from plates and lysed with lysis buffer (25 mM HEPES, 150 mM NaCl, 0.5% Triton, 10% glycerol, 1 mM dithiothreitol) containing phosphatase inhibitors (25 mM β-glycerophosphate, 1 mM Na3VO4, and 1 mM NaF) and complete protease inhibitor mixture (Roche Applied Science; Penzberg, Germany). Total proteins were separated by 10% SDS–PAGE gels (12% for α-SMA) and transferred onto PVDF membranes. The membranes were then incubated with anti-αV polyclonal antibody (1:250 dilution) (Cell Signaling Technology; Boston, MA, USA), anti-β6 polyclonal antibody (1:1000 dilution) (Abcam; Cambridge, UK) or anti-α-SMA monoclonal antibody (Agilent; Santa Clara, CA, USA; 1:1000 dilution). HRP-conjugated anti-rabbit antibody (1:1000 dilution) (Cell Signaling Technology) was used as the secondary antibody. Immunoblots were developed using the ECL chemiluminescent detection system. Rabbit anti-glyceraldehyde 3-phosphate dehydrogenase (GAPDH) (Merck) or rabbit anti-heat shock protein 90 (Hsp90; Santa Cruz) was used as loading controls at a dilution of 1:10,000 or 1:200, respectively. Values of optical intensity were normalized to GAPDH or Hsp90 levels. Data were analyzed by paired Wilcoxon test; a p-value < 0.05 was considered statistically significant. Statistical analysis was performed with GraphPad Prism 6 software (San Diego, CA, USA).
Supplementary information SI3.
Variation of αV and β6 expression in human fibroblast-like synoviocytes after stimulation with different compounds. Time of stimulation and employed substances are indicated. The graphs represent αV and β6 expression before and after stimulation, obtained by western blot. Values were normalized to GAPDH and analysed by paired Wilcoxon test.
IL-1β 10 ng/mL 3 days IL-6 10 ng/mL 3 daysIL-6 Prednisolone 1µM 3 daysPrednisolone […]
Dexamethasone 1µM 3 days TNF-α 10 ng/mL 3 days TGF-β 10 ng/mL 3 days
(1 picture or pasted object on this page, not shown here)
0.0 control IL-6 0.0 control PRE […]

[2] = test system: β6 integrin subunit expression, human fibroblast-like synoviocytes (FLSs); test: β6 subunit expression in FLSs by western blot after stimulation; type: cell-based; settings: OA FLSs, western blot normalized to GAPDH; IL-1β, IL-6, TNF-α 10 ng/mL 3 or 7 days; prednisolone, dexamethasone 1 μM 3 or 7 days; HMGB1 10, 50, 100 ng/mL 3 days; S100A9, S100A12 100, 200 ng/mL 3 days or 24 h; AGE-BSA 50, 100, 200 μg/mL 3 days or 24 h; menadione 25–50–100 μM 3 h; H2O2 100–200–400 μM 2 h
Procedure: as §1, §2
IL-1β 10 ng/mL 3 days IL-6 10 ng/mL 3 daysIL-6 Prednisolone 1µM 3 daysPrednisolone
0.0 control IL-6 0.0 control PRE
Dexamethasone 1µM 3 daysDexamethasone TNF-α 10 ng/mL 3 days AGE 50 µg/mL 24 h

[3] = target: T1, integrin αVβ6 (Homo sapiens, UniProt P06756+P18564); test: Competition study, 125ISIB-echistatin vs ligands on coated αVβ6; type: binding; settings: competition with 20 nM 125ISIB-echistatin, recombinant human αVβ6 coated at 1.8 µg/mL, IBB pH 7.4 / 0.5% BSA, 2 h room temperature, duplicate wells, gamma counter, five-parameter logistic
T1 construct: purchased R&D System; Minneapolis, MN, USA
T1 sequence (P06756 31-992 limits assumed): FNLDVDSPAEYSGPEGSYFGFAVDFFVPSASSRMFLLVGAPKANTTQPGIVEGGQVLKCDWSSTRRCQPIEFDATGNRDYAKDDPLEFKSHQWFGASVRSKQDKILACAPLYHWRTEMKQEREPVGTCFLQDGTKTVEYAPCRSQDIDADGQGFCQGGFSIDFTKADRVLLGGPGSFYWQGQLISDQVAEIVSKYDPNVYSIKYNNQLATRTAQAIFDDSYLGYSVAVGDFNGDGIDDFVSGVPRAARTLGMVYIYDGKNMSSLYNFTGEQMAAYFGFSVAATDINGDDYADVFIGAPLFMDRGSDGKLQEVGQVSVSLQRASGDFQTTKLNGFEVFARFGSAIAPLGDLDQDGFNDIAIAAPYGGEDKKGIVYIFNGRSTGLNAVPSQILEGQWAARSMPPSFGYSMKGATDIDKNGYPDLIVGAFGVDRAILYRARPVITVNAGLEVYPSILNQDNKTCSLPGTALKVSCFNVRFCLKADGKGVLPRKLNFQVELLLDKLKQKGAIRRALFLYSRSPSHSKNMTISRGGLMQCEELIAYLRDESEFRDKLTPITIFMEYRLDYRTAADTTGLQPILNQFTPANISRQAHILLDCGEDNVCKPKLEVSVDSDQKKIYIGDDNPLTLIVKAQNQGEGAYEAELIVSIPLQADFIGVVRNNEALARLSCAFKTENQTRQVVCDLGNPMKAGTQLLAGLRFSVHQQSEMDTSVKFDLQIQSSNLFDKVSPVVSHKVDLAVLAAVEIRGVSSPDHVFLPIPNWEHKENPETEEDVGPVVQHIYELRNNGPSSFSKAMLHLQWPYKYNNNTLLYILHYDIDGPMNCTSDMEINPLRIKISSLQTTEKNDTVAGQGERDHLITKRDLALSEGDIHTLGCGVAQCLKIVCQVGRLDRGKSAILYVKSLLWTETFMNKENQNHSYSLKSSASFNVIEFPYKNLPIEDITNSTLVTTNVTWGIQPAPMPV
T1 sequence (P18564 22-707 limits assumed): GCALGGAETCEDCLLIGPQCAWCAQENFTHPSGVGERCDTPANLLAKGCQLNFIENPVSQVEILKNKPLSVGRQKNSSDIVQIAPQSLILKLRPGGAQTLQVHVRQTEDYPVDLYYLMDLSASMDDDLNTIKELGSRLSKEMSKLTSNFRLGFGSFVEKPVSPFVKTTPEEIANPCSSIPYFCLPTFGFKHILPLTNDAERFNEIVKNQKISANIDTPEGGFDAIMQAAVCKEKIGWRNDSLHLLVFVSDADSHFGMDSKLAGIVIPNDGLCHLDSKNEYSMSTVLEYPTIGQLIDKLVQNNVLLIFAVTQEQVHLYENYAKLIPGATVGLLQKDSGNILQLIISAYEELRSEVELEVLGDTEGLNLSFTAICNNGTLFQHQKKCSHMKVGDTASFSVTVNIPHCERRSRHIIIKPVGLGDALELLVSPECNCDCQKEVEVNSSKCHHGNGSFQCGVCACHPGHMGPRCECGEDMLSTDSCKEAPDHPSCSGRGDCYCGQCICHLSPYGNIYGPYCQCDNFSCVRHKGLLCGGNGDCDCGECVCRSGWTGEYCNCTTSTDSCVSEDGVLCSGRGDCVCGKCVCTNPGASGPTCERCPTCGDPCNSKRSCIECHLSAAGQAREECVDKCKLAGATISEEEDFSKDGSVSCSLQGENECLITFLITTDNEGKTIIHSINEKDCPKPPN
Procedure: (§3) A competition study was performed to investigate the interaction of VTN(381–397 a.a.) with five different integrins. Radiolabeled echistatin, a disintegrin known to bind integrin receptors, was used as a tracer for the binding assays. Lyophilized echistatin was provided by Bachem (Bubendorf, Switzerland) and radiolabeled by conjugation with a radioiodinated benzoate (^125ISIB) to the epsilon amino group of lysine side chains. For the five integrins, α5β1, αVβ1, αVβ3, αVβ5, and αVβ6 (R&D System; Minneapolis, MN, USA), a solution at 1.8 µg/mL was prepared with integrin-binding buffer (IBB; 20 mM Tris pH 7.4, 150 mM NaCl, 2 mM CaCl2, 1 mM MgCl2, 1 mM MnCl2). Nunc Maxisorp Module plates were coated overnight at 4 °C with integrin complex at 1.8 µg/mL. After the wells were washed with sample buffer (IBB, 0.5% BSA), blocking solution (IBB, 2% BSA) was added, and the microplate was incubated for 2 h at room temperature. The wells were then washed three times with IBB/0.5% BSA. Then, ^125ISIB-echistatin was diluted in sample buffer to fixed concentrations of 4, 4, 8, 8, and 20 nM for α5β1, αVβ1, αVβ3, αVβ5, and αVβ6 competition studies, respectively. The ^125ISIB-echistatin was mixed with sample buffer at a ratio of 1:1 (total binding = control well) or with increasing concentrations of ligands (Supplementary information SI1) [complete VTN, VTN(381–397 a.a.), VTN(365–381 a.a.)] at a ratio 1:1 and added to wells in duplicate. We used 1,4,7-triazacyclononane-1,4,7-triacetic acid (NOTA) as a negative control. […] After rinsing, bound radioactivity was quantified using a gamma counter. The percentage of relative binding of radiolabeled echistatin was calculated as follows: radioactivity in the test well*100/radioactivity in the reference well. […] For comparison of the potency of ligands in inhibiting bound ^125ISIB-echistatin for different integrin complexes, the half-maximal inhibitory concentration (IC50) was calculated. The IC50 value was determined by constructing a dose–response curve and examining the effect of different concentrations of ligands on ^125ISIB-echistatin binding. […]
To determine if VTN(381–397 a.a.) could interact with integrins, we investigated its ability to compete with radiolabeled echistatin for binding to five different integrin complexes: α5β1, αVβ1, αVβ3, αVβ5 and αVβ6. […] First, the binding affinity of echistatin to the five integrins was measured by determining the equilibrium dissociation constant (KD). […] The fixed concentration of radiolabeled echistatin was determined according to its KD value. For each ligand concentration, the relative binding of ^125ISIB-echistatin to coated integrins was then measured, and values were plotted versus the logarithm of ligand concentration.

[4] = target: T2, integrin αVβ3 (Homo sapiens, UniProt P05106+P06756); test: Competition study, 125ISIB-echistatin vs ligands on coated αVβ3; type: binding; settings: competition with 8 nM 125ISIB-echistatin, recombinant human αVβ3 coated at 1.8 µg/mL, IBB pH 7.4 / 0.5% BSA, 2 h room temperature, duplicate wells
T2 construct: purchased R&D System; Minneapolis, MN, USA
T2 sequence (P06756 31-992 limits assumed): as the sequence (P06756 31-992 limits assumed) above
T2 sequence (P05106 27-718 limits assumed): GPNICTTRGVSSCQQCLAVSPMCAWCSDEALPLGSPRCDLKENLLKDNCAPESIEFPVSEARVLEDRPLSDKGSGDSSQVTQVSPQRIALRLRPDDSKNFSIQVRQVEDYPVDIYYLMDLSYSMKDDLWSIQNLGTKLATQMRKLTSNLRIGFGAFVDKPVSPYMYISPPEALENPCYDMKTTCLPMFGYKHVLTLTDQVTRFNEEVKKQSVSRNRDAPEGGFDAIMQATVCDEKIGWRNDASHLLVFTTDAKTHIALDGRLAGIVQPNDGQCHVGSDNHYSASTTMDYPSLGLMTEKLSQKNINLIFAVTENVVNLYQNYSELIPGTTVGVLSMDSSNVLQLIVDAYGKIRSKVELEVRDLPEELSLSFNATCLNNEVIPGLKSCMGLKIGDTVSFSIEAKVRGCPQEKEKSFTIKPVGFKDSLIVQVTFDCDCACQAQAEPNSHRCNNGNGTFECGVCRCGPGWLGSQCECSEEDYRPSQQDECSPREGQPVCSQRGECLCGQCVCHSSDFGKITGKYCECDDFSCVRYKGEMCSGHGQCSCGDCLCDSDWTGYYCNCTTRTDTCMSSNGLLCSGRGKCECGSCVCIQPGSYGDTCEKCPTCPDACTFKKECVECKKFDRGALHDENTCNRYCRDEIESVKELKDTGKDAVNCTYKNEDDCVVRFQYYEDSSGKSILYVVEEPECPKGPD
Procedure: as §3, with “µg/mL.” for “µg/mL. After the wells were washed with sample buffer (IBB, 0.5% BSA), blocking solution (IBB, 2% BSA) was added, and the microplate was incubated for 2 h at room temperature. The wells were then washed three times with IBB/0.5% BSA. Then, ^125ISIB-echistatin was diluted in sample buffer to fixed concentrations of 4, 4, 8, 8, and 20 nM for α5β1, αVβ1, αVβ3, αVβ5, and αVβ6 competition studies, respectively. The ^125ISIB-echistatin was mixed with sample buffer at a ratio of 1:1 (total binding = control well) or with increasing concentrations of ligands (Supplementary information SI1) [complete VTN, VTN(381–397 a.a.), VTN(365–381 a.a.)] at a ratio 1:1 and added to wells in duplicate. We used 1,4,7-triazacyclononane-1,4,7-triacetic acid (NOTA) as a negative control.”

[5] = target: T3, integrin αVβ5 (Homo sapiens, UniProt P06756+P18084); test: Competition study, 125ISIB-echistatin vs ligands on coated αVβ5; type: binding; settings: competition with 8 nM 125ISIB-echistatin, recombinant human αVβ5 coated at 1.8 µg/mL, IBB pH 7.4 / 0.5% BSA, 2 h room temperature, duplicate wells
T3 construct: purchased R&D System; Minneapolis, MN, USA
T3 sequence (P06756 31-992 limits assumed): as the sequence (P06756 31-992 limits assumed) above
T3 sequence (P18084 24-719 limits assumed): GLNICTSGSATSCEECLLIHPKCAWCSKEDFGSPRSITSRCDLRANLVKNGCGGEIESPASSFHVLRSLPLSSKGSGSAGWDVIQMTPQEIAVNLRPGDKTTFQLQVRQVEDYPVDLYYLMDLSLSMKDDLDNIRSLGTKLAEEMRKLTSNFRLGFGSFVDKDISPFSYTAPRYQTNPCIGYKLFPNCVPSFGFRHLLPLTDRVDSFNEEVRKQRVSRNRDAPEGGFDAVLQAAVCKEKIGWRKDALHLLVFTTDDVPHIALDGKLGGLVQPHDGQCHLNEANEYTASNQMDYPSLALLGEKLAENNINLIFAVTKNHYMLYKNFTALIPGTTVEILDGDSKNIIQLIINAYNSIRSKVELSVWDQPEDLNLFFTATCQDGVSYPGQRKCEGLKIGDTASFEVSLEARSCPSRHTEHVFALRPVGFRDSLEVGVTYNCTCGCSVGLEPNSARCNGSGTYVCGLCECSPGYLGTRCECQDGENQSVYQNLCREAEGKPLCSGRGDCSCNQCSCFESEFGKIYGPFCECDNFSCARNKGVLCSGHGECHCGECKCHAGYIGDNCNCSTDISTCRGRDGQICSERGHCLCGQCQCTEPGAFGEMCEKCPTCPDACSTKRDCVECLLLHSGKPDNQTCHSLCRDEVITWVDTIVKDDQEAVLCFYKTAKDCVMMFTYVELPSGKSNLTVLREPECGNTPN
Procedure: as §3, with “µg/mL.” for “µg/mL. After the wells were washed with sample buffer (IBB, 0.5% BSA), blocking solution (IBB, 2% BSA) was added, and the microplate was incubated for 2 h at room temperature. The wells were then washed three times with IBB/0.5% BSA. Then, ^125ISIB-echistatin was diluted in sample buffer to fixed concentrations of 4, 4, 8, 8, and 20 nM for α5β1, αVβ1, αVβ3, αVβ5, and αVβ6 competition studies, respectively. The ^125ISIB-echistatin was mixed with sample buffer at a ratio of 1:1 (total binding = control well) or with increasing concentrations of ligands (Supplementary information SI1) [complete VTN, VTN(381–397 a.a.), VTN(365–381 a.a.)] at a ratio 1:1 and added to wells in duplicate. We used 1,4,7-triazacyclononane-1,4,7-triacetic acid (NOTA) as a negative control.”

Molecule	effect on αV subunit expression [1]	effect on β6 subunit expression [2]	IC50 [3] [nM]	IC50 [4] [nM]	IC50 [5] [nM]
OO [H2O2]	none of these treatments influenced the expression levels of the αV and β6 integrin subunits	none of these treatments influenced the expression levels of the αV and β6 integrin subunits			
C[C@@H]1C[C@H]2[C@@H]3CCC4=CC(=O)C=C[C@]4(C)[C@@]3(F)[C@@H](O)C[C@]2(C)[C@@]1(O)C(=O)CO [dexamethasone]	none of these treatments influenced the expression levels of the αV and β6 integrin subunits	none of these treatments influenced the expression levels of the αV and β6 integrin subunits			
CC1=CC(=O)c2ccccc2C1=O [menadione]	none of these treatments influenced the expression levels of the αV and β6 integrin subunits	none of these treatments influenced the expression levels of the αV and β6 integrin subunits			
C[C@]12C=CC(=O)C=C1CC[C@@H]1[C@@H]2[C@@H](O)C[C@@]2(C)[C@H]1CC[C@]2(O)C(=O)CO [prednisolone]	none of these treatments influenced the expression levels of the αV and β6 integrin subunits	none of these treatments influenced the expression levels of the αV and β6 integrin subunits			
AGE-BSA: advanced glycation end product	none of these treatments influenced the expression levels of the αV and β6 integrin subunits	none of these treatments influenced the expression levels of the αV and β6 integrin subunits			
IL-1β: proinflammatory cytokine	none of these treatments influenced the expression levels of the αV and β6 integrin subunits	none of these treatments influenced the expression levels of the αV and β6 integrin subunits			
IL-6: proinflammatory cytokine	none of these treatments influenced the expression levels of the αV and β6 integrin subunits	none of these treatments influenced the expression levels of the αV and β6 integrin subunits			
SQRGHSRGRNQNSRRPS [VTN(381–397 a.a.)]			3200		
TNF-α	none of these treatments influenced the expression levels of the αV and β6 integrin subunits	none of these treatments influenced the expression levels of the αV and β6 integrin subunits			
VTN: whole VTN protein			250	1500	130
B1	none of these treatments influenced the expression levels of the αV and β6 integrin subunits	none of these treatments influenced the expression levels of the αV and β6 integrin subunits			
B2	none of these treatments influenced the expression levels of the αV and β6 integrin subunits	none of these treatments influenced the expression levels of the αV and β6 integrin subunits			
